Assay results published in patent US9676715B2, “Bis-indolic derivatives, a process for preparing the same and their uses as a drug” (UNIVERSITE JOSEPH FOURIER, priority 2011, dated 2017).
In brackets after ≈: the same amount, converted by molar mass.

Legend:
S. aureus ATCC 25923 [1] = test: Mutation frequency; assay type: cell-based, Staphylococcus aureus
Description: The mutation frequency is the number of individuals in a population with a particular mutation. In the present case, the mutation frequency was determined for a specific bacterial species and a specific indolic compound. Mueller Hinton agar plates containing various indolic compound concentrations, i.e., MIC×2, MIC×4, MIC×8, and MIC×16 were prepared. These plates were inoculated with various bacterial suspensions: 10^7, 10^8 or 10^9 UFC/mL. After 24 hours incubation of media at 37° C., CFU were numerated. The mutation frequency corresponded to the ratio of resistant mutants counted on a specific plate to the CFU count of the primary inoculum, expressed as a percentage.

[2] = system: S. aureus ATCC 106414 (VISA); test: MIC, microdilution method (9.1); assay type: cell-based, Staphylococcus aureus; conditions: Staphylococcus aureus, read after 18 h, read-out: MIC
Method in brief: (§1)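 Antibacterial activity was determined by the microdilution technique recommended in CLSI document M07-A8, at 37° C. in ambient air with Mueller Hinton medium and a final bacterial load of 5×10^5 CFU/ml.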

S. aureus ATCC 6538 = test: MIC, microdilution method (9.1); assay type: cell-based, Staphylococcus aureus; conditions: Staphylococcus aureus, ATCC6538, read after 18 h, read-out: MIC
Method in brief: as §1

S. aureus ATCC 29213 = test: MIC, microdilution method (9.1); assay type: cell-based, Staphylococcus aureus; conditions: Staphylococcus aureus, ATCC29213, read after 18 h, read-out: MIC
Method in brief: as §1

S. aureus CIP 65.6 = test: MIC, microdilution method (9.1); assay type: cell-based, Staphylococcus aureus; conditions: Staphylococcus aureus, CIP65, read after 18 h, read-out: MIC
Method in brief: as §1

S. aureus ATCC 25923 [3] = test: Concentration-killing curves; assay type: cell-based, Staphylococcus aureus; conditions: concentrations up to 128 mg/L, after 18 h of incubation
Description: FIGS. 1A and 1B present concentration-killing curves for the indolic compounds 3f and 4 against S. aureus ATCC 25923. The activity is evaluated after 18 h incubation of S. aureus cultures in the presence of the tested compound.
The area between the horizontal full line and the dashed line corresponds to a bacteriostatic effect and the area below the dashed line corresponds to a bactericidal effect (i.e., ≧3 log reduction of the primary bacterial inoculum after 18 h incubation of cultures in the presence of the tested compound).
The method described by Motyl et al. [M. Motyl, K. Dorso, J. Barrett, R. Giacobbe, Basic Microbiological Techniques Used in Antibacterial Drug Discovery. Current Protocols in Pharmacology. UNIT 13A.3. January, 2006] was used.
Killing curves corresponded to the measure of the kinetic of bactericidal activity of indolic compounds over time (time-kill curves) or after 18 h incubation of cultures according to different drug concentrations (concentration-killing curves). […] Bacterial inocula are determined in each tube using the CFU count method at the beginning of the experiments, and then after 18 h for concentration-killing curves, or after 1 h, 2 h, 4 h, 8 h and 18 h for time-kill curves. […]

S. mitis CIP 103335 = test: MIC, microdilution method (9.1); assay type: cell-based, Streptococcus mitis; conditions: Streptococcus mitis, CIP103335, 18 h, read-out: MIC
Method in brief: as §1

E. faecalis ATCC 29212 = test: MIC, microdilution method (9.1); assay type: cell-based, Enterococcus faecalis; conditions: Enterococcus faecalis, ATCC29212, 18 h, read-out: MIC
Method in brief: as §1

[4] = system: Staphylococcus aureus 1199B (overexpression of the NorA efflux pump); test: Efflux pump inhibition assay with sub-inhibitory ciprofloxacin; assay type: cell-based; conditions: S. aureus 1199B
Description: The efflux pump inhibition potential of the bis-indolic derivatives was tested using two steps.
The following experimental protocol was used: indolic derivatives (initially solubilised in DMSO at 10 mg/mL) were dispensed in a 96-wells microplate by two fold serial dilutions in Muller-Hinton medium (MH, Bio Rad) using a Biomek 2000 (Beckman) handling robot. 100 μL of the bacterial inoculum (an overnight culture at 37° C. in 5 mL MH diluted 100-fold) was then added in each well. The total volume was 200 μL in each well and the final bacteria concentration 10^6 CFU/mL (CFU: colony forming unit). The highest final indolic derivative concentration was 128 mg/L. Growth was assayed with a microplate reader by monitoring absorption at 620 nm after 1, 2, 5, 7 and 24 h incubation at 37° C. In addition, the plates were read visually after 24 hours incubation. Cultures containing 5 μL DMSO were used as growth controls. In addition, two controls containing a sub-inhibitory or a inhibitory antibiotic concentration for the tested strain were performed. The antibiotics used were ampicillin (0.5 and 32 μg/mL) for E. coli, kanamycin (0.5 and 16 μg/mL) for S. aureus ATCC 25923, ciprofloxacin (4 and 64 mg/L) for S. aureus 1199B, ciprofloxacin (0.5 and 2 mg/L) for S. aureus K2378. All experiments were performed in duplicate.
Efflux pump inhibition assays were then performed against resistant Staphylococcus aureus strains SA 1199B and SA K2378 for bis-indolic derivatives. […] The minimal inhibitory concentration (MIC) of the bis-indolic compound allowing a complete inhibition of the bacterial growth in the presence of ciprofloxacin was determined.

[5] = in the presence of ciprofloxacin 4 mg/L

Compound | mutation frequency (S. aureus ATCC 25923 [1]) | MIC [2] | MIC (S. aureus ATCC 6538) | MIC (S. aureus ATCC 29213) | MIC (S. aureus CIP 65.6) | bactericidal activity (concentration-killing curve) (S. aureus ATCC 25923 [3]) | MIC (S. mitis CIP 103335) | MIC (E. faecalis ATCC 29212) | MIC, mg/L (Ciprofloxacin concentration, mg/L) [4, 5] | MIC, mg/L (Ciprofloxacin concentration, mg/L) ([4]; in the presence of ciprofloxacin 1 mg/L) | MIC, mg/L (Ciprofloxacin concentration, mg/L) ([4]; in the presence of ciprofloxacin 2 mg/L)
CC(NC(=O)c1c[nH]c2ccc(Br)cc12)c1c[nH]c2ccc(Br)cc12 (stereo not drawn) [Compound 4, 5-Bromo-N-(1-(5-bromo-1H-indol-3-yl)ethyl)-1H-indole-3-carboxamide] | < 1.5×10^−10 | 2 µg/mL (≈ 4.34 µM) | 2 µg/mL (≈ 4.34 µM) | 2 µg/mL (≈ 4.34 µM) | 2 µg/mL (≈ 4.34 µM) | no detectable bactericidal activity |  |  |  |  | 
CC(C)(C)OC(=O)NCC(NC(=O)c1c[nH]c2ccc(Br)cc12)c1c[nH]c2ccc(Br)cc12 (stereo not drawn) [Compound 3f, tert-Butyl(2-(5-bromo-1H-indol-3-yl)-2-(5-bromo-1H-indolyl-3-carboxamido)ethyl)carbamate] | 2×10^−9 | 2 µg/mL (≈ 3.47 µM) | 1 µg/mL (≈ 1.74 µM) | 1 µg/mL (≈ 1.74 µM) | 1 µg/mL (≈ 1.74 µM) | no detectable bactericidal activity | 64 µg/mL (≈ 111 µM) | > 128 µg/mL |  |  | 
NCCCCNC(=O)C(NC(=O)c1c[nH]c2ccc(Br)cc12)c1c[nH]c2ccc(Br)cc12 (stereo not drawn) [Compound 16, N-(2-((4-Aminobutyl)amino)-1-(5-bromo-1H-indol-3-yl)-2-oxoethyl)-5-bromo-1H-indole-3-carboxamide] |  | 8 µg/mL (≈ 14.3 µM) | 8 µg/mL (≈ 14.3 µM) | 8 µg/mL (≈ 14.3 µM) | 8 µg/mL (≈ 14.3 µM) |  | > 128 µg/mL | > 128 µg/mL | 1 (4) mg/L |  | 
Cn1cc(C(=O)NC(CNC(=O)OC(C)(C)C)c2c[nH]c3ccc(Br)cc23)c2cc(Br)ccc21 (stereo not drawn) [Compound 7, tert-Butyl (2-(5-bromo-1-methyl-1H-indole-3-carboxamido)-2-(5-bromo-1H-indol-3-yl)ethyl) carbamate] |  | > 128 µg/mL | > 128 µg/mL | > 128 µg/mL | > 128 µg/mL |  | > 128 µg/mL | > 128 µg/mL | 0.25 (4) mg/L | 4 (1) mg/L | 1 (2) mg/L
